Laboratory results: US20100249402A1, “NOVEL BENZAMIDINE DERIVATIVES, PROCESS FOR THE PREPARATION THEREOF AND PHARMACEUTICAL COMPOSITION FOR PREVENTING OR TREATING OSTEPOROSIS COMPRISING THE SAME” (DONG WHA PHARMACEUTICAL CO. LTD., priority 2007, published 2010)
Read-outs that look alike come from different tables or passages of the source.

Columns and labels:
[1] = system: osteoclast differentiation; test: Inhibitory effects on osteoclast differentiation (bone marrow cell/osteoblast co-culture, TRAP staining); format: cell-based, mice; conditions: for inhibition at 1 µM: Mus musculus, Osteoclast, 168 h, read-out: Inhibition of osteoclast differentiation (%)
Method: The effect of the benzamidine derivative of the present invention on osteoclast formation and differentiation process was evaluated via co-culture with an osteoblast.
Tibia was aseptically ectomized from 6 to 8-week-old male ddY mice to harvest bone marrow cells by using a syringe (21G, Korea Green Cross). The bone marrow cells were suspended in 5 mL of an α-MEM medium (Gibco BRL Co., supplemented with sodium bicarbonate (2.0 g/L), streptomycin (100 mg/L) and penicillin ([…]), filtered and then sterilized). The harvested cells were centrifuged at 600×g for 5 minutes to collect the whole quantity. To remove the red blood cells in the bone marrow cells, 3 mL of Tris HCl (0.83% NH4Cl, pH 7.5) was added and well mixed. After centrifugation, the numbers of the eukaryotic cells in the harvested bone marrow cells were counted, and then immediately used for a co-culture system.
The progenitor bone and the parietal bone were aseptically ectomized from 1 to 2-day-old neonatal ICR mice, washed with a phosphate butter solution (PBS), and treated with a mixed enzyme solution (0.2% collagenase and 0.1% dispase) six to seven times (10, 10, 10, 20, 20 and 20 min), and then 3 to 6 groups of the cells, in which a large volume of cells having osteoblastic characteristics were contained, were intensively collected, and washed with medium (serum-free α-MEM). The washed cells were cultured in the α-MEM medium containing 10% FBS for 2 to 3 days. After sub-culturing, the collected cells were used for this experiment, and diluted to a concentration of 1×10^6 cells/mL for storage at −70° C.
The benzamidine derivative of the present invention was dissolved in a sterile distilled water or ethanol to be diluted to a desired concentration. The final volume of the sample added to the cell culture medium was set at a ratio of 1:1000.
The bone marrow cells prepared in the above 1-1 and the osteoblast were co-cultured. Both the bone marrow cells (25,000 cells/cm^2) and the osteoblast (10,000 cells/cm^2) were plated in a 96-well plate using α-MEM medium containing FBS, and then cultured with the samples to be tested for 7 days. Differentiation factors, such as dexamethasone (10^−7 M) and vitamin D (10^−8 M), were also co-added to the medium from the first day of cultivation. The medium was changed with a fresh media containing a mixture of the samples and the differentiation factors every 2 to 3 days.
TRAP was used as a marker to measure the matured osteoclast in consideration of its characteristics showing a positive reaction to a TRAP staining solution.
The TRAP staining solution was prepared in such the manner that 5 mg of naphthol AS-MS phosphate (sigma N-4875) as a substrate and 25 mg of a coloring agent (Fast Red Violet LB salt) were dissolved in N,N-dimethylformamide (about 0.5 mL). 50 ml of a 0.1 N […] buffer solution containing 50 mM tartaric acid (pH 5.0) was added thereto, and the mixture was stored in a refrigerator prior to use as a staining solution.
After culturing the cells for 7 days, the medium was removed from the wells, the cells were once washed with PBS, and then fixed with PBS containing 10% formalin for 2 to 5 min. The cells were fixed again in a mixed solution of ethanol and acetone (1/1) for about 1 min, and dried off. The cells were further treated by the TRAP staining solution for 15 minutes, and washed with water and dried off. The osteoclasts with 3 or more nuclei showing a TRAP-positive reaction were counted under a microscopic examination. Each of tests was confirmed at least three times. The inhibitory effect on osteoclast differentiation of each experimental group, relative to negative controls, was expressed as a percentage (%).

MC3T3-E1 = test: Cytotoxicity test (MTT), MC3T3-E1; format: cell-based; conditions: 10^−6 M, cultured for 72 hrs, in comparison with the control group
Method: (§1) The cytotoxic effect of the benzamidine derivative of the present invention was evaluated by carrying out the experiment described below.
(§2) The test substance was diluted in an appropriate solvent at a concentration of 10^−2 M. This substance was diluted in an appropriate culture medium for the cells used in the cytotoxicity test to a concentration of 10^−6M, and loaded into a 96-well plate in 100 μl per well. The cell lines to be used in the cytotoxicity test were plated on a 96-well plate in a dose of 1.0×10^4 cell/100 μl per well, and cultured for 72 hrs. 25 μl of MTT[3-(4,5-dimethyl-2-thiazolyl)-2,5-diphenyl-2H-tetrazolium bromide] dissolved in PBS (2 mg/mL) were added before 4 hrs of the end of culture. After completion of the reaction, the plates were centrifuged, the medium was discarded and 100 μl of DMSO was added to dissolve formazan. Finally, the absorbance of the developed plates was measured at 540 nm. The survival rates of the cells were expressed as % concentration values in comparison with the control group.

calvaria = test: Cytotoxicity test (MTT), calvaria; format: cell-based; conditions: 10^−6 M, cultured for 72 hrs, in comparison with the control group
Method: as §1, §2

HOS = test: Cytotoxicity test (MTT), HOS; format: cell-based; conditions: 10^−6 M, cultured for 72 hrs, in comparison with the control group
Method: as §1, §2

[2] = 1 μm, 7 days co-culture, TRAP-positive osteoclasts with 3 or more nuclei, relative to negative controls

N=C(NO)c1ccc(OCCCCCOc2ccc(-c3nc(N)sc3N3CCOCC3)cc2)cc1 [Example 3, N-hydroxy-4-{5-[4-(2-amino-5-morpholin-4-yl-thiazol-4-yl)-phenoxy]-pentyloxy}-benzamidine]
inhibition at 1 µM [1, 2]: 73.2%
Cell survival rate (MC3T3-E1): 94.6%
Cell survival rate (calvaria): 97.7%
Cell survival rate (HOS): 89.0%

CN(Cc1ccncc1)c1nc(-c2ccc(OCCCCCOc3ccc(C(=N)NO)cc3)cc2)c(CN2CCOCC2)s1 [Example 24, N-hydroxy-4-(5-{4-[2-(methyl-pyridin-4-ylmethyl-amino)-5-morpholin-4-ylmethyl-thiazol-4-yl]-phenoxy}-pentyloxy)-benzamidine]
inhibition at 1 µM [1]: 100%
Cell survival rate (MC3T3-E1): 86%
Cell survival rate (calvaria): 95%
Cell survival rate (HOS): 112%

Cc1nc(-c2ccc(OCCCCCOc3ccc(C(=N)NO)cc3)cc2)c(CNC(C)(C)C)s1 [Example 15, N-hydroxy-4-(5-{4-[5-(tert-butylamino-methyl)-2-methyl-thiazol-4-yl]-phenoxy}-pentyloxy)-benzamidine]
inhibition at 1 µM [1]: 100%
Cell survival rate (MC3T3-E1): 99%
Cell survival rate (calvaria): 105%
Cell survival rate (HOS): 98%

N=C(NO)c1ccc(OCCCCCOc2ccc(-c3nc(-c4cccnc4)sc3N)cc2)cc1 [Example 47, N-hydroxy-4-{5-[4-(5-amino-2-pyridin-3-yl-thiazol-4-yl)-phenoxy]-pentyloxy}-benzamidine]
inhibition at 1 µM [1, 2]: 86%
Cell survival rate (MC3T3-E1): 97%
Cell survival rate (calvaria): 99%
Cell survival rate (HOS): 112%

Cc1nc(-c2ccc(OCCCCCOc3ccc(C(=N)NO)cc3)cc2)c(CN2CCCCC2)s1 [Example 11, N-hydroxy-4-{5-[4-(2-methyl-5-piperidin-1-ylmethyl-thiazol-4-yl)-phenoxy]-pentyloxy}-benzamidine]
inhibition at 1 µM [1, 2]: 92.3%
Cell survival rate (MC3T3-E1): 91.9%
Cell survival rate (calvaria): 95.8%
Cell survival rate (HOS): 101.9%

N=C(NO)c1ccc(OCCCCCOc2ccc(-c3nc(N4CCOCC4)sc3N3CCCC3)cc2)cc1 [Example 7, N-hydroxy-4-{5-[4-(2-morpholin-4-yl-5-pyrrolidin-1-yl-thiazol-4-yl)-phenoxy]-pentyloxy}-benzamidine]
inhibition at 1 µM [1]: 58%
Cell survival rate (MC3T3-E1): 99%
Cell survival rate (calvaria): 101%
Cell survival rate (HOS): 92%

N=C(NO)c1ccc(OCCCCCOc2ccc(-c3nc(-c4ccccc4)sc3N)cc2)cc1 [Example 45, N-hydroxy-4-{5-[4-(5-amino-2-phenyl-thiazol-4-yl)-phenoxy]-pentyloxy}-benzamidine]
inhibition at 1 µM [1, 2]: 91%
Cell survival rate (MC3T3-E1): 81%
Cell survival rate (calvaria): 83%
Cell survival rate (HOS): 104%

N=C(NO)c1ccc(OCCCCCOc2ccc(-c3nc(N4CCCCC4)sc3N3CCOCC3)cc2)cc1 [Example 52, N-hydroxy-4-{5-[4-(5-morpholin-4-yl-2-piperidin-1-yl-thiazol-4-yl)-phenoxy]-pentyloxy}-benzamidine]
inhibition at 1 µM [1, 2]: 91%
Cell survival rate (MC3T3-E1): 94%
Cell survival rate (calvaria): 97%
Cell survival rate (HOS): 97%

Cc1nc(-c2ccc(OCCCCCOc3ccc(C(=N)NO)cc3)cc2)c(N(C)C)s1 [Example 41]
Inhibition of osteoclast differentiation (%) [1, 2]: 94%
Cell survival rate (MC3T3-E1): 91%
Cell survival rate (calvaria): 93%
Cell survival rate (HOS): 107%

Cc1nc(-c2ccc(OCCCCCOc3ccc(C(=N)NO)cc3)cc2)c(CNCC(C)C)s1 [Example 14, N-hydroxy-4-(5-{4-[5-(isobutylamino-methyl)-2-methyl-thiazol-4-yl]-phenoxy}-pentyloxy)-benzamidine]
inhibition at 1 µM [1]: 100%
Cell survival rate (MC3T3-E1): 98%
Cell survival rate (calvaria): 103%
Cell survival rate (HOS): 111%

Cc1nc(-c2ccc(OCCCCCOc3ccc(C(=N)NO)cc3)cc2)c(CN(C)C)s1 [Example 12, N-hydroxy-4-{5-[4-(5-dimethylaminomethyl-2-methyl-thiazol-4-yl)-phenoxy]-pentyloxy}-benzamidine]
inhibition at 1 µM [1]: 64.9%
Cell survival rate (MC3T3-E1): 98.8%
Cell survival rate (calvaria): 95.6%
Cell survival rate (HOS): 107.5%

CNc1sc(C)nc1-c1ccc(OCCCCCOc2ccc(C(=N)NO)cc2)cc1 [Example 37, N-hydroxy-4-{5-[4-(2-methyl-5-methylamino-thiazol-4-yl)-phenoxy]-pentyloxy}-benzamidine]
inhibition at 1 µM [1, 2]: 83.3%
Cell survival rate (MC3T3-E1): 94.3%
Cell survival rate (calvaria): 92.5%
Cell survival rate (HOS): 105.3%

Cc1nc(-c2ccc(OCCCCCOc3ccc(C(=N)NO)cc3)cc2)c(NC(=O)c2cccnc2)s1 [Example 39, N-hydroxy-4-[5-(4-{2-methyl-5-[(pyridine-3-carbonyl)-amino]-thiazol-4-yl}-phenoxy)-pentyloxy]-benzamidine]
inhibition at 1 µM [1, 2]: 65.5%
Cell survival rate (MC3T3-E1): 95.0%
Cell survival rate (calvaria): 86.3%
Cell survival rate (HOS): 92.1%

COCCN(CCOC)Cc1sc(N(C)CCN2CCOCC2)nc1-c1ccc(OCCCCCOc2ccc(C(=N)NO)cc2)cc1 [Example 30, N-hydroxy-4-[5-(4-{5-{[bis-(2-methoxy-ethyl)-amino]-methyl}-2-[methyl-(2-morpholin-4-yl-ethyl)-amino]-thiazol-4-yl}-phenoxy)-pentyloxy]-benzamidine]
inhibition at 1 µM [1]: 93%
Cell survival rate (MC3T3-E1): 105%
Cell survival rate (calvaria): 103%
Cell survival rate (HOS): 107%

COCCNCc1sc(N(C)CCN2CCOCC2)nc1-c1ccc(OCCCCCOc2ccc(C(=N)NO)cc2)cc1 [Example 33, N-hydroxy-4-[5-(4-{5-[(2-methoxy-ethylamino)-methyl]-2-[methyl-(2-morpholin-4-yl-ethyl)-amino]-thiazol-4-yl}-phenoxy)-pentyloxy]-benzamidine]
inhibition at 1 µM [1]: 100%
Cell survival rate (MC3T3-E1): 104%
Cell survival rate (calvaria): 94%
Cell survival rate (HOS): 110%

CN(CCO)c1nc(-c2ccc(OCCCCCOc3ccc(C(=N)NO)cc3)cc2)c(CN2CCOCC2)s1 [Example 25, N-hydroxy-4-[5-(4-{2-[(2-hydroxy-ethyl)-methyl-amino]-5-morpholin-4-ylmethyl-thiazol-4-yl}-phenoxy)-pentyloxy]-benzamidine]
inhibition at 1 µM [1]: 100%
Cell survival rate (MC3T3-E1): 100%
Cell survival rate (calvaria): 86%
Cell survival rate (HOS): 86%

Cc1nc(-c2ccc(OCCCCCOc3ccc(C(=N)NO)cc3)cc2)c(-n2cncn2)s1 [Example 44, N-hydroxy-4-{5-[4-(2-methyl-5-[1,2,4]triazol-1-yl-thiazol-4-yl)-phenoxy]-pentyloxy}-benzamidine]
inhibition at 1 µM [1, 2]: 68%
